In brackets after ≈: the same amount, converted by molar mass.
test system: A. baumannii 49; experiment: In vitro antibacterial activity test (broth microdilution); format: cell-based; conditions: Acinetobacter baumannii; A. baumannii 49; read-out: MIC90
Procedure: (§1) To evaluate antibacterial activity of each of the compounds of Examples 1 to 68, in vitro antibacterial activity test was performed.
(§2) The in vitro antibacterial activity was evaluated by measuring MIC90 (ug/mL) of each of the compounds of Examples 1 to 68, which is defined as the lowest concentration of an antibiotic that will inhibit the visible growth of 90% of microorganisms after incubation as compared with a control group to which the antibiotic is not treated. MIC90 values were measured by the broth microdilution method developed by the Clinical and Laboratory Standards Institute (CLSI) (see CLSI M7-A5, Methods for Dilution Antimicrobial Susceptibility Test for Bacteria that Grow Aerobically-Fifth Edition (2000): CLSI, Villanova, Pa.).
(§3) In vitro antibacterial activity was measured with respect to the following 19 clinical isolates: M. catarrhalis; P. aeruginosa (5 strains); K. pneumoniae (6 strains); A. baumannii (3 strains); E. coli (2 strains); A. calcoaceticus; and E. cloacae.
(§4) Test compounds each (the cephalosporin derivative compounds prepared in Examples 1 to 68) were dissolved in DMSO at the concentration of 10,240 ug/mL, were diluted by two fold with DMSO, and then were diluted by twenty fold with sterilized distilled water. The final concentration in the antibacterial activity test was in the range of […] to 128 ug/mL, and the final concentration of DMSO used as an adjuvant was 2.5% (V/V).

Row | Compound | MIC90
1 | C[C@H](O/N=C(\C(=O)N[C@@H]1C(=O)N2C(C(=O)[O-])=C(C[n+]3cnc(N)c(NCCNC(=O)c4ccc(O)c(O)c4)c3)CSC12)c1nc(N)sc1Cl)C(=O)O (stereo partly drawn) [Compound 35] | 4 µg/mL (≈ 5.15 µM)
2 | CC(C)(O/N=C(\C(=O)N[C@@H]1C(=O)N2C(C(=O)[O-])=C(C[n+]3cnc(N)c(NCCNC(=O)c4ccc(O)c(C(=O)O)c4)c3)CSC12)c1csc(N)n1)C(=O)O (stereo partly drawn) [Compound 33] | > 128 µg/mL

test system: A. calcoaceticus ATCC15473; experiment: as above; format: cell-based; conditions: Acinetobacter calcoaceticus; A. calcoaceticus ATCC15473; read-out: MIC90
Procedure: as §1, §2, §3, §4

Row | Compound | MIC90
3 | C[C@H](O/N=C(\C(=O)N[C@@H]1C(=O)N2C(C(=O)[O-])=C(C[n+]3cnc(N)c(NCCNC(=O)c4ccc(O)c(O)c4)c3)CSC12)c1nc(N)sc1Cl)C(=O)O (stereo partly drawn) [Compound 35] | 0.5 µg/mL (≈ 0.643 µM)
4 | CC(C)(O/N=C(\C(=O)N[C@@H]1C(=O)N2C(C(=O)[O-])=C(C[n+]3cnc(N)c(NCCNC(=O)c4ccc(O)c(C(=O)O)c4)c3)CSC12)c1csc(N)n1)C(=O)O (stereo partly drawn) [Compound 33] | 128 µg/mL (≈ 163 µM)

test system: K. pneumoniae 2011E; experiment: as above; format: cell-based; conditions: Klebsiella pneumoniae, 2011E, K. pneumoniae 2011E; read-out: MIC90
Procedure: as §1, §2, §3, §4

Row | Compound | MIC90
5 | C[C@H](O/N=C(\C(=O)N[C@@H]1C(=O)N2C(C(=O)[O-])=C(C[n+]3cnc(N)c(NCCNC(=O)c4ccc(O)c(O)c4)c3)CSC12)c1nc(N)sc1Cl)C(=O)O (stereo partly drawn) [Compound 35] | 2 µg/mL (≈ 2.57 µM)
6 | CC(C)(O/N=C(\C(=O)N[C@@H]1C(=O)N2C(C(=O)[O-])=C(C[n+]3cnc(N)c(NCCNC(=O)c4ccc(O)c(C(=O)O)c4)c3)CSC12)c1csc(N)n1)C(=O)O (stereo partly drawn) [Compound 33] | 16 µg/mL (≈ 20.4 µM)

test system: P. aeruginosa 43; experiment: as above; format: cell-based; conditions: Pseudomonas aeruginosa; P. aeruginosa 43; read-out: MIC90
Procedure: as §1, §2, §3, §4

Row | Compound | MIC90
7 | C[C@H](O/N=C(\C(=O)N[C@@H]1C(=O)N2C(C(=O)[O-])=C(C[n+]3cnc(N)c(NCCNC(=O)c4ccc(O)c(O)c4)c3)CSC12)c1nc(N)sc1Cl)C(=O)O (stereo partly drawn) [Compound 35] | 1 µg/mL (≈ 1.29 µM)
8 | CC(C)(O/N=C(\C(=O)N[C@@H]1C(=O)N2C(C(=O)[O-])=C(C[n+]3cnc(N)c(NCCNC(=O)c4ccc(O)c(C(=O)O)c4)c3)CSC12)c1csc(N)n1)C(=O)O (stereo partly drawn) [Compound 33] | > 128 µg/mL

test system: E. cloacae β19; experiment: as above; format: cell-based; conditions: Enterobacter cloacae, read-out: MIC90
Procedure: as §1, §2, §3, §4

Row | Compound | MIC90
9 | C[C@H](O/N=C(\C(=O)N[C@@H]1C(=O)N2C(C(=O)[O-])=C(C[n+]3cnc(N)c(NCCNC(=O)c4ccc(O)c(O)c4)c3)CSC12)c1nc(N)sc1Cl)C(=O)O (stereo partly drawn) [Compound 35] | 0.5 µg/mL (≈ 0.643 µM)
10 | CC(C)(O/N=C(\C(=O)N[C@@H]1C(=O)N2C(C(=O)[O-])=C(C[n+]3cnc(N)c(NCCNC(=O)c4ccc(O)c(C(=O)O)c4)c3)CSC12)c1csc(N)n1)C(=O)O (stereo partly drawn) [Compound 33] | > 128 µg/mL

test system: P. aeruginosa 37; experiment: as above; format: cell-based; conditions: Pseudomonas aeruginosa, 37, P. aeruginosa 37; read-out: MIC90
Procedure: as §1, §2, §3, §4

Row | Compound | MIC90
11 | C[C@H](O/N=C(\C(=O)N[C@@H]1C(=O)N2C(C(=O)[O-])=C(C[n+]3cnc(N)c(NCCNC(=O)c4ccc(O)c(O)c4)c3)CSC12)c1nc(N)sc1Cl)C(=O)O (stereo partly drawn) [Compound 35] | 0.25 µg/mL (≈ 0.322 µM)
12 | CC(C)(O/N=C(\C(=O)N[C@@H]1C(=O)N2C(C(=O)[O-])=C(C[n+]3cnc(N)c(NCCNC(=O)c4ccc(O)c(C(=O)O)c4)c3)CSC12)c1csc(N)n1)C(=O)O (stereo partly drawn) [Compound 33] | > 128 µg/mL

test system: E. coli AG100; experiment: as above; format: cell-based; conditions: Escherichia coli, AG100, E. coli AG100; read-out: MIC90
Procedure: as §1, §2, §3, §4

Row | Compound | MIC90
13 | C[C@H](O/N=C(\C(=O)N[C@@H]1C(=O)N2C(C(=O)[O-])=C(C[n+]3cnc(N)c(NCCNC(=O)c4ccc(O)c(O)c4)c3)CSC12)c1nc(N)sc1Cl)C(=O)O (stereo partly drawn) [Compound 35] | < 0.0625 µg/mL
14 | CC(C)(O/N=C(\C(=O)N[C@@H]1C(=O)N2C(C(=O)[O-])=C(C[n+]3cnc(N)c(NCCNC(=O)c4ccc(O)c(C(=O)O)c4)c3)CSC12)c1csc(N)n1)C(=O)O (stereo partly drawn) [Compound 33] | 16 µg/mL (≈ 20.4 µM)

test system: P. aeruginosa 40; experiment: as above; format: cell-based; conditions: Pseudomonas aeruginosa, 40, P. aeruginosa 40; read-out: MIC90
Procedure: as §1, §2, §3, §4

Row | Compound | MIC90
15 | C[C@H](O/N=C(\C(=O)N[C@@H]1C(=O)N2C(C(=O)[O-])=C(C[n+]3cnc(N)c(NCCNC(=O)c4ccc(O)c(O)c4)c3)CSC12)c1nc(N)sc1Cl)C(=O)O (stereo partly drawn) [Compound 35] | 1 µg/mL (≈ 1.29 µM)
16 | CC(C)(O/N=C(\C(=O)N[C@@H]1C(=O)N2C(C(=O)[O-])=C(C[n+]3cnc(N)c(NCCNC(=O)c4ccc(O)c(C(=O)O)c4)c3)CSC12)c1csc(N)n1)C(=O)O (stereo partly drawn) [Compound 33] | 128 µg/mL (≈ 163 µM)

test system: A. baumannii 52; experiment: as above; format: cell-based; conditions: Acinetobacter baumannii; A. baumannii 52; read-out: MIC90
Procedure: as §1, §2, §3, §4

Row | Compound | MIC90
17 | C[C@H](O/N=C(\C(=O)N[C@@H]1C(=O)N2C(C(=O)[O-])=C(C[n+]3cnc(N)c(NCCNC(=O)c4ccc(O)c(O)c4)c3)CSC12)c1nc(N)sc1Cl)C(=O)O (stereo partly drawn) [Compound 35] | 2 µg/mL (≈ 2.57 µM)
18 | CC(C)(O/N=C(\C(=O)N[C@@H]1C(=O)N2C(C(=O)[O-])=C(C[n+]3cnc(N)c(NCCNC(=O)c4ccc(O)c(C(=O)O)c4)c3)CSC12)c1csc(N)n1)C(=O)O (stereo partly drawn) [Compound 33] | > 128 µg/mL

test system: A. baumannii 46; experiment: as above; format: cell-based; conditions: Acinetobacter baumannii; A. baumannii 46; read-out: MIC90
Procedure: as §1, §2, §3, §4

Row | Compound | MIC90
19 | C[C@H](O/N=C(\C(=O)N[C@@H]1C(=O)N2C(C(=O)[O-])=C(C[n+]3cnc(N)c(NCCNC(=O)c4ccc(O)c(O)c4)c3)CSC12)c1nc(N)sc1Cl)C(=O)O (stereo partly drawn) [Compound 35] | 4 µg/mL (≈ 5.15 µM)
20 | CC(C)(O/N=C(\C(=O)N[C@@H]1C(=O)N2C(C(=O)[O-])=C(C[n+]3cnc(N)c(NCCNC(=O)c4ccc(O)c(C(=O)O)c4)c3)CSC12)c1csc(N)n1)C(=O)O (stereo partly drawn) [Compound 33] | 128 µg/mL (≈ 163 µM)

test system: M. catarrhalis 2524; experiment: as above; format: cell-based; conditions: Moraxella catarrhalis; M. catarrhalis 2524; read-out: MIC90
Procedure: as §1, §2, §3, §4

Row | Compound | MIC90
21 | C[C@H](O/N=C(\C(=O)N[C@@H]1C(=O)N2C(C(=O)[O-])=C(C[n+]3cnc(N)c(NCCNC(=O)c4ccc(O)c(O)c4)c3)CSC12)c1nc(N)sc1Cl)C(=O)O (stereo partly drawn) [Compound 35] | < 0.0625 µg/mL
22 | CC(C)(O/N=C(\C(=O)N[C@@H]1C(=O)N2C(C(=O)[O-])=C(C[n+]3cnc(N)c(NCCNC(=O)c4ccc(O)c(C(=O)O)c4)c3)CSC12)c1csc(N)n1)C(=O)O (stereo partly drawn) [Compound 33] | 2 µg/mL (≈ 2.55 µM)

test system: P. aeruginosa 1912E; experiment: as above; format: cell-based; conditions: Pseudomonas aeruginosa, 1912E, read-out: MIC90
Procedure: as §1, §2, §3, §4

Row | Compound | MIC90
23 | C[C@H](O/N=C(\C(=O)N[C@@H]1C(=O)N2C(C(=O)[O-])=C(C[n+]3cnc(N)c(NCCNC(=O)c4ccc(O)c(O)c4)c3)CSC12)c1nc(N)sc1Cl)C(=O)O (stereo partly drawn) [Compound 35] | 2 µg/mL (≈ 2.57 µM)
24 | CC(C)(O/N=C(\C(=O)N[C@@H]1C(=O)N2C(C(=O)[O-])=C(C[n+]3cnc(N)c(NCCNC(=O)c4ccc(O)c(C(=O)O)c4)c3)CSC12)c1csc(N)n1)C(=O)O (stereo partly drawn) [Compound 33] | 64 µg/mL (≈ 81.6 µM)

test system: E. coli β4; experiment: as above; format: cell-based; conditions: Escherichia coli, read-out: MIC90
Procedure: as §1, §2, §3, §4

Row | Compound | MIC90
25 | C[C@H](O/N=C(\C(=O)N[C@@H]1C(=O)N2C(C(=O)[O-])=C(C[n+]3cnc(N)c(NCCNC(=O)c4ccc(O)c(O)c4)c3)CSC12)c1nc(N)sc1Cl)C(=O)O (stereo partly drawn) [Compound 35] | 1 µg/mL (≈ 1.29 µM)
26 | CC(C)(O/N=C(\C(=O)N[C@@H]1C(=O)N2C(C(=O)[O-])=C(C[n+]3cnc(N)c(NCCNC(=O)c4ccc(O)c(C(=O)O)c4)c3)CSC12)c1csc(N)n1)C(=O)O (stereo partly drawn) [Compound 33] | 64 µg/mL (≈ 81.6 µM)

test system: K. pneumoniae β14; experiment: as above; format: cell-based; conditions: Klebsiella pneumoniae, read-out: MIC90
Procedure: as §1, §2, §3, §4

Row | Compound | MIC90
27 | C[C@H](O/N=C(\C(=O)N[C@@H]1C(=O)N2C(C(=O)[O-])=C(C[n+]3cnc(N)c(NCCNC(=O)c4ccc(O)c(O)c4)c3)CSC12)c1nc(N)sc1Cl)C(=O)O (stereo partly drawn) [Compound 35] | 16 µg/mL (≈ 20.6 µM)
28 | CC(C)(O/N=C(\C(=O)N[C@@H]1C(=O)N2C(C(=O)[O-])=C(C[n+]3cnc(N)c(NCCNC(=O)c4ccc(O)c(C(=O)O)c4)c3)CSC12)c1csc(N)n1)C(=O)O (stereo partly drawn) [Compound 33] | 128 µg/mL (≈ 163 µM)

test system: P. aeruginosa 6065Y; experiment: as above; format: cell-based; conditions: Pseudomonas aeruginosa, read-out: MIC90
Procedure: as §1, §2, §3, §4

Row | Compound | MIC90
29 | C[C@H](O/N=C(\C(=O)N[C@@H]1C(=O)N2C(C(=O)[O-])=C(C[n+]3cnc(N)c(NCCNC(=O)c4ccc(O)c(O)c4)c3)CSC12)c1nc(N)sc1Cl)C(=O)O (stereo partly drawn) [Compound 35] | 2 µg/mL (≈ 2.57 µM)
30 | CC(C)(O/N=C(\C(=O)N[C@@H]1C(=O)N2C(C(=O)[O-])=C(C[n+]3cnc(N)c(NCCNC(=O)c4ccc(O)c(C(=O)O)c4)c3)CSC12)c1csc(N)n1)C(=O)O (stereo partly drawn) [Compound 33] | 128 µg/mL (≈ 163 µM)

Reference: patent publication US9630977B2, “Cephalosporin derivatives and pharmaceutical compositions thereof” (Legochem Biosciences, Inc., priority 2011, dated 2017)
